Reference: patent publication US10272086B2 (CHANG GUNG MEMORIAL HOSPITAL, LINKOU, priority 2013, dated 2019)

Legend:
[1] = Double-blind clinical trial of topical Minoxidil versus placebo in patients with acne; type: in vivo, human
Procedure: A double-blind clinical trial is conducted, in which topical Minoxidil and placebo are administered to patients with acne.

[2] = test system: PSA (prostate specific antigen) protein expression; assay: Western blot of AR regulated PSA protein expression in LNCaP cells; type: cell-based, human; settings: 10^−3˜10^−5 M Minoxidil, 24 h
Procedure: The cells were prepared for electrophoresis on SDS/PAGE gel and then transferred onto nitrocellulose (Minipore, Billerica, USA). AR, PSA and beta-actin proteins were identified using anti-AR (N-20 from Santa Cruz Biotechnology, Santa Cruz, USA), anti-PSA (C-19 from Santa Cruz Biotechnology, Santa Cruz, USA), or […] (MAB1501 from Millipore, Billerica, USA) respectively. Images were shown using alkaline phosphatase substrate color kit (Bio-Rad, Hercules, USA).

[3] = biological target: T1, glucocorticoid receptor (GR) (Homo sapiens, UniProt P04150); assay: Glucocorticoid receptor transcriptional activity reporter assay in PC-3 cells (control study); type: cell-based
T1 construct: host or cells: PC-3
T1 sequence (P04150 1-777): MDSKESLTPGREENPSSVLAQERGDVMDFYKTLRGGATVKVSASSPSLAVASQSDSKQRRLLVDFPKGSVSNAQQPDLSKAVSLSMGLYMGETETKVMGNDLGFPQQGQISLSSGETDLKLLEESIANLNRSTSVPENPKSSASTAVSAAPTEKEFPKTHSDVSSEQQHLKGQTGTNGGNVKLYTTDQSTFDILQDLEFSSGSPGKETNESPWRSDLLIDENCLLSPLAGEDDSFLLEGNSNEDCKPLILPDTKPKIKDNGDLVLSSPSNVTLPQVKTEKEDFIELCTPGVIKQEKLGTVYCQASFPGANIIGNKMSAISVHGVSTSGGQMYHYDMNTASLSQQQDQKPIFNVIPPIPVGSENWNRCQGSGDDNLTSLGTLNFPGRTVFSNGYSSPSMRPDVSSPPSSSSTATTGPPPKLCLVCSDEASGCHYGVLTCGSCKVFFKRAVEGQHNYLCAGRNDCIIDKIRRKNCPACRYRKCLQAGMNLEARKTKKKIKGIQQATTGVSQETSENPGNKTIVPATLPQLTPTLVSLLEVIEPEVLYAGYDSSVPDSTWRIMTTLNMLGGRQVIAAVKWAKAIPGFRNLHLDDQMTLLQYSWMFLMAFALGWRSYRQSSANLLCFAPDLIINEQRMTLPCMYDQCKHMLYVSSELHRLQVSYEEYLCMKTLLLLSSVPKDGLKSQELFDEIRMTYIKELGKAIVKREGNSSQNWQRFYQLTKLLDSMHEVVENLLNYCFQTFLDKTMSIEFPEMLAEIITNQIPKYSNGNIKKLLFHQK

[4] = Topical 5% Minoxidil on an acne on a patient's face, two applications; type: in vivo, human
[5] = Topical Minoxidil on forehead acne in a patient, 7-day course; type: in vivo, human
Procedure: An in vivo evaluation of topical Minoxidil on acne was carried out in a patient. […] In addition, there was less new […] formation on the left (treated) forehead compared to the right (untreated) forehead.

Nc1cc(N2CCCCC2)nc(N)[n+]1[O-] [Minoxidil, 6-piperidin-1-ylpyrimidine-2,4-diamine 3-oxide]
Symptoms and signs of acne in comparison with the placebo group [1]: statistically significant reduction in the symptoms and signs of acne | AR regulated PSA protein expression [2]: effective in inhibiting AR regulated PSA protein expression in the presence of DHT, in a dose dependent manner | GR transcriptional activity ([3]; highest concentration 100 μM): did affect GR transcriptional activity | GR transcriptional activity ([3]; lower concentrations 1-10 μM): did not | Erythema and swelling around the acne ([4]; 5% Minoxidil, topical, after two applications): significant reduction in erythema and swelling around the acne | Efficacy in treating acne ([4]; 5% topical Minoxidil, 48-hour period): effective in treating acne | New pimple formation, treated versus untreated forehead ([5]; 5% Minoxidil solution, topical, once a day for 7 days): less new pimple formation on the left (treated) forehead | Pimples on treated forehead ([5]; 5% Minoxidil solution, topical, once a day for 7 days, left forehead treated, right forehead control): disappearance of pimples on the left (treated) forehead | Healing time of acne ([5]; 5% topical Minoxidil, 7-day course): faster healing time
